The source of these data is publication PMC7138139 (Molecular and cellular neurosciences, 2020).

SMILES strings stand for the structures.

The target of one test is T1, Olfr937 (Mus musculus, UniProt Q9EQB4).
T1 sequence (Q9EQB4 1-311): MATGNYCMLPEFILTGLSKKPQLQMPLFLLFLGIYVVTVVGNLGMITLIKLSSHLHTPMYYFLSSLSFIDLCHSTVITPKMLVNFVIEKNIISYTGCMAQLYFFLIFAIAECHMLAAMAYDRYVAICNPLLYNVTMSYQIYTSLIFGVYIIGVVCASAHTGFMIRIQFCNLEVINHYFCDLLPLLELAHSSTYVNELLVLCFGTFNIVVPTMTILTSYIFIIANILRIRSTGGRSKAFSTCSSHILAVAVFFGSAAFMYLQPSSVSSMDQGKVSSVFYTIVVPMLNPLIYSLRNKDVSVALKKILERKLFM
Kind of test: Glosensor cAMP luminescence dose-response, Hana3A cells. Conditions: antagonist of whiskey lactone response; 316 uM. The class given is cell-based.

The target of the next test is T2, Olfr774 (Mus musculus, UniProt Q7TRI5).
T2 sequence (Q7TRI5 1-312): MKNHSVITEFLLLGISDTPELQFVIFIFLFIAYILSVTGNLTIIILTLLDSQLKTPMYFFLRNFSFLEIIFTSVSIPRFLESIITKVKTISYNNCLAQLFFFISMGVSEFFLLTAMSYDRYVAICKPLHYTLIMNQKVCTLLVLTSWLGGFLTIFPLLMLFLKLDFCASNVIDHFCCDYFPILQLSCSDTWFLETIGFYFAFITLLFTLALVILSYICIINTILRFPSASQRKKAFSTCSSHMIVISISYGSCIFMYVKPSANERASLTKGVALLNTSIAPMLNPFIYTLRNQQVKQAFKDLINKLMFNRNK
The test is described as above. The class given is cell-based. As to conditions: agonist.

Consider `CC(C)(C)c1ccc(CCC=O)cc1` [bourgeonal, 3-(4-tert-butylphenyl)propanal], for which, on Olfr937, the “Glosensor cAMP luminescence dose-response, Hana3A cells” value is “bourgeonal and lyral also suppressed Olfr937 responses to whiskey lactone, with bourgeonal being more effective”.

With `CCCCCCCCCCC=O` [undecanal], the “Glosensor cAMP luminescence dose-response, Hana3A cells” value at Olfr774 was “In vitro testing confirmed that Olfr774 responded to undecanal but not to bourgeonal”.
